This is an account of results in patent US20120045393A1 (priority 2009, published 2012).

The term EC50 denotes the midpoint of the concentration-response curve.

The subject of the assay is LHRH binding sites on human ovarian cancer cells (EFO-27).
[1] abbreviates: Table 5: modifications of amino acids at positions 1 and 2, in vitro binding on EFO-27 cells.

Read-outs that look alike come from different tables or passages of the source. Non-standard residues stand in square brackets, D forms with d. Residues, ends and D or L forms follow the SMILES beside them. *: point of attachment. DOTA = O=C(O)CN1CCN(CC(=O)O)CCN(CC(=O)*)CCN(CC(=O)O)CC1; Bpa = N[C@@H](Cc1ccc(C(=O)c2ccccc2)cc1)C(=O)O; Ala(4-thiazolyl) = N[C@@H](Cc1cscn1)C(=O)O; d2Nal = N[C@H](Cc1ccc2ccccc2c1)C(=O)O; His(π-Me) = Cn1cncc1C[C@H](N)C(=O)O; 3Pal = N[C@@H](Cc1cccnc1)C(=O)O; azaGly = NNC(=O)O; Sar = CNCC(=O)O
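Further: Cell-associated radioactivity on confluent EFO-27 monolayers in 96-well plates, measured by microplate scintillation counting.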

Consider `CSCC[C@H](NC(=O)[C@H](Cc1c[nH]c2ccccc12)NC(=O)[C@H](CCCNC(=N)N)NC(=O)[C@@H](Cc1ccc2ccccc2c1)NC(=O)CN1CCN(CC(=O)O)CCN(CC(=O)O)CCN(CC(=O)O)CC1)C(=O)N[C@@H](Cc1c[nH]cn1)C(=O)N[C@H](CCCNC(=N)N)C(=O)N[C@@H](Cc1c[nH]c2ccccc12)C(=O)N[C@@H](Cc1ccc(C(=O)c2ccccc2)cc1)C(=O)N1CCC[C@H]1C(=O)NNC(N)=O` [BRU-2964] ({DOTA}-[d2Nal]RWMH[dR]W[Bpa]P[azaGly]-NH2), for which the EC50 was 0.22 µM. Moreover, under “BRU-2813 vs BRU-2666, BRU-2964 vs BRU-2813”, the “more potency than the comparator analog” value is 30%.

With `N=C(N)NCCC[C@H](NC(=O)[C@@H](Cc1ccc2ccccc2c1)NC(=O)CN1CCN(CC(=O)O)CCN(CC(=O)O)CCN(CC(=O)O)CC1)C(=O)N[C@@H](Cc1c[nH]c2ccccc12)C(=O)N[C@@H](CO)C(=O)N[C@@H](Cc1c[nH]cn1)C(=O)N[C@H](CCCNC(=N)N)C(=O)N[C@@H](Cc1c[nH]c2ccccc12)C(=O)N[C@@H](Cc1ccc(C(=O)c2ccccc2)cc1)C(=O)N1CCC[C@H]1C(=O)NNC(=O)NCCOCCN` [compound 3022], the half-maximal effective concentration (EC50) turned out to be 0.71 µM.

`CN(CC(=O)N[C@@H](Cc1ccccc1)C(=O)N[C@@H](Cc1c[nH]c2ccccc12)C(=O)N[C@@H](CO)C(=O)N[C@@H](Cc1c[nH]cn1)C(=O)N[C@H](CCCNC(=N)N)C(=O)N[C@@H](Cc1c[nH]c2ccccc12)C(=O)N[C@@H](Cc1ccc(C(=O)c2ccccc2)cc1)C(=O)N1CCC[C@H]1C(=O)NNC(N)=O)C(=O)CN1CCN(CC(=O)O)CCN(CC(=O)O)CCN(CC(=O)O)CC1` [BRU-2738] ({DOTA}-[Sar]FWSH[dR]W[Bpa]P[azaGly]-NH2): the midpoint of the response under setting [1], the EC50, lay at 1.22 µM.

`CNCC(=O)N[C@@H](CCCNC(=N)N)C(=O)N[C@@H](Cc1c[nH]c2ccccc12)C(=O)N[C@@H](CO)C(=O)N[C@@H](Cc1c[nH]cn1)C(=O)N[C@H](CCCNC(=N)N)C(=O)N[C@@H](Cc1c[nH]c2ccccc12)C(=O)N[C@@H](Cc1ccc(C(=O)c2ccccc2)cc1)C(=O)N1CCC[C@H]1C(=O)NCCOCCN` [compound 3007] had a concentration giving a half-maximal response (EC50) of 0.22 µM.

`CN(CC(=O)N[C@@H](Cc1cncn1C)C(=O)N[C@@H](Cc1c[nH]c2ccccc12)C(=O)N[C@@H](CO)C(=O)N[C@@H](Cc1cscn1)C(=O)N[C@H](CCCNC(=N)N)C(=O)N[C@@H](Cc1c[nH]c2ccccc12)C(=O)N[C@@H](Cc1ccc(C(=O)c2ccccc2)cc1)C(=O)N1CCC[C@H]1C(=O)NNC(N)=O)C(=O)CN1CCN(CC(=O)O)CCN(CC(=O)O)CCN(CC(=O)O)CC1` [BRU-2739] ({DOTA}-[Sar][His(π-Me)]WS[Ala(4-thiazolyl)][dR]W[Bpa]P[azaGly]-NH2; C-terminus assumed) showed an EC50 of 5.28 µM.

For `N=C(N)NCCC[C@@H](NC(=O)[C@H](Cc1c[nH]cn1)NC(=O)[C@H](CO)NC(=O)[C@H](Cc1c[nH]c2ccccc12)NC(=O)[C@H](Cc1c[nH]cn1)NC(=O)[C@H](NC(=O)CNC(=O)CN1CCN(CC(=O)O)CCN(CC(=O)O)CCN(CC(=O)O)CC1)c1cccc2ccccc12)C(=O)N[C@@H](Cc1c[nH]c2ccccc12)C(=O)N[C@@H](Cc1ccc(C(=O)c2ccccc2)cc1)C(=O)N1CCC[C@H]1C(=O)NNC(N)=O` [BRU-2770], it took 2.7 µM to reach a half-maximal effect under setting [1] (EC50).

`CN(CC(=O)N[C@@H](Cc1c[nH]cn1)C(=O)N[C@@H](Cc1c[nH]c2ccccc12)C(=O)N[C@@H](CO)C(=O)N[C@@H](Cc1c[nH]cn1)C(=O)N[C@H](CCCNC(=N)N)C(=O)N[C@@H](Cc1c[nH]c2ccccc12)C(=O)N[C@H](C(=O)N1CCC[C@H]1C(=O)NNC(N)=O)C1Cc2ccccc2C1)C(=O)CN1CCN(CC(=O)O)CCN(CC(=O)O)CCN(CC(=O)O)CC1` [BRU-2765] gave an EC50 of 8.71 µM.

With `CN(CC(=O)N[C@@H](Cc1cccnc1)C(=O)N[C@@H](Cc1c[nH]c2ccccc12)C(=O)N[C@@H](CO)C(=O)N[C@@H](Cc1c[nH]cn1)C(=O)N[C@H](CCCNC(=N)N)C(=O)N[C@@H](Cc1c[nH]c2ccccc12)C(=O)N[C@@H](Cc1ccc(C(=O)c2ccccc2)cc1)C(=O)N1CCC[C@H]1C(=O)NNC(N)=O)C(=O)CN1CCN(CC(=O)O)CCN(CC(=O)O)CCN(CC(=O)O)CC1` [BRU-2818] ({DOTA}-[Sar][3Pal]WSH[dR]W[Bpa]P[azaGly]-NH2), the EC50 is 1.62 µM.

`N=C(N)NCCC[C@H](NC(=O)[C@@H](Cc1ccc2ccccc2c1)NC(=O)CN1CCN(CC(=O)O)CCN(CC(=O)O)CCN(CC(=O)O)CC1)C(=O)N[C@@H](Cc1c[nH]c2ccccc12)C(=O)N[C@@H](CO)C(=O)N[C@@H](Cc1c[nH]cn1)C(=O)N[C@H](CCCNC(=N)N)C(=O)N[C@@H](Cc1c[nH]c2ccccc12)C(=O)N[C@@H](Cc1ccc(C(=O)c2ccccc2)cc1)C(=O)N1CCC[C@H]1C(=O)N[C@H](CO)Cc1ccccc1` [compound 2983] came in with a half-maximal effective concentration (EC50) of 0.45 µM.

In the case of `CN(CC(=O)N[C@@H](Cc1c[nH]cn1)C(=O)N[C@@H](Cc1c[nH]c2ccccc12)C(=O)N[C@@H](CO)C(=O)N[C@@H](Cc1c[nH]cn1)C(=O)N[C@H](CCCNC(=N)N)C(=O)N[C@@H](Cc1c[nH]c2ccccc12)C(=O)N[C@@H](CC1CCCCC1)C(=O)N1CCC[C@H]1C(=O)NNC(N)=O)C(=O)CN1CCN(CC(=O)O)CCN(CC(=O)O)CCN(CC(=O)O)CC1` [BRU-2718], the EC50 worked out at 0.63 µM.

As to `N=C(N)NCCC[C@H](NC(=O)[C@@H](Cc1ccc2ccccc2c1)NC(=O)CC[C@H](CCCCN)NC(=O)CN1CCN(CC(=O)O)CCN(CC(=O)O)CCN(CC(=O)O)CC1)C(=O)N[C@@H](Cc1c[nH]c2ccccc12)C(=O)N[C@@H](CO)C(=O)N[C@@H](Cc1c[nH]cn1)C(=O)N[C@H](CCCNC(=N)N)C(=O)N[C@@H](Cc1c[nH]c2ccccc12)C(=O)N[C@@H](Cc1ccc(C(=O)c2ccccc2)cc1)C(=O)N1CCC[C@H]1C(=O)NCCOCCOCCN` [BRU-3100], the EC50 (read-out: EC50 μM, Underivatized LHRH peptides and LHRH peptides with chelator on N-terminus, EFO-27 cells) turned out to be 0.14 µM.

The molecule `CN(CC(=O)N[C@@H](Cc1c[nH]cn1)C(=O)N[C@@H](Cc1c[nH]c2ccccc12)C(=O)N[C@@H](CO)C(=O)N[C@@H](Cc1c[nH]cn1)C(=O)N[C@H](CCCNC(=N)N)C(=O)N[C@@H](Cc1c[nH]c2ccccc12)C(=O)N[C@@H](Cc1ccc(Cl)cc1)C(=O)N1CCC[C@H]1C(=O)NNC(N)=O)C(=O)CN1CCN(CC(=O)O)CCN(CC(=O)O)CCN(CC(=O)O)CC1` [BRU-2725] returned an EC50 of 2.26 µM.

In turn, `CN(CC(=O)N[C@@H](Cc1c[nH]cn1)C(=O)N[C@@H](Cc1c[nH]c2ccccc12)C(=O)N[C@@H](CO)C(=O)N[C@@H](Cc1c[nH]cn1)C(=O)N[C@H](CCCNC(=N)N)C(=O)N[C@@H](Cc1c[nH]c2ccccc12)C(=O)N[C@@H](Cc1ccc(C(=NO)c2ccccc2)cc1)C(=O)N1CCC[C@H]1C(=O)NNC(N)=O)C(=O)CN1CCN(CC(=O)O)CCN(CC(=O)O)CCN(CC(=O)O)CC1` [BRU-2907] came in with a 50% effective concentration (EC50) of 1.9 µM.

As for `N=C(N)NCCC[C@H](NC(=O)[C@@H](Cc1ccc2ccccc2c1)NC(=O)CN1CCN(CC(=O)O)CCN(CC(=O)O)CCN(CC(=O)O)CC1)C(=O)N[C@H](Cc1c[nH]c2ccccc12)C(=O)N[C@@H](CO)C(=O)N[C@@H](Cc1c[nH]cn1)C(=O)N[C@H](CCCNC(=N)N)C(=O)N[C@@H](Cc1c[nH]c2ccccc12)C(=O)N[C@@H](Cc1ccc(C(=O)c2ccccc2)cc1)C(=O)N1CCC[C@H]1C(=O)NNC(N)=O` [compound 3112], where the note is “Table 12: modification of amino acid at position 3, EFO-27 cells”, the EC50 stood at 0.85 µM.
